Patent publication US8937091B2 (Japan Science and Technology Agency, priority 2009, dated 2015)

Assays:
[1] = tested on: IICR (IP3 induced calcium release) in CHO cells; experiment: Assay of IICR (IP3 induced calcium release)-inhibiting action; assay type: cell-based, Chinese hamster; settings: CHO cells, 10 μM ATP; for inhibition at 10 µM / inhibition at 30 µM / inhibition at 100 µM: Cricetulus griseus, CHO, read-out: IICR level (percentage of inhibition)
In short: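 CHO cell medium replaced with calcium-containing BSS; compound added 1 min later, then 10 μM ATP after a further 2 min. Percent inhibition of the ATP-evoked rise in intracellular calcium determined at each compound concentration.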

[2] = tested on: SOCE (store operated calcium entry) in CHO cells; experiment: Assay of SOCE (store operated calcium entry)-inhibiting action; assay type: cell-based, Chinese hamster; settings: CHO cells, thapsigargin; for inhibition at 10 µM / inhibition at 30 µM / inhibition at 100 µM: Cricetulus griseus, CHO, read-out: SOCE level (percentage of inhibition)
In short: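 CHO cells in calcium-free BSS received compound, then 1 μM thapsigargin 2 min later to deplete stores; after 9 min, 2 mM calcium chloride (final) added. Percent inhibition of the rise in intracellular calcium determined at various compound concentrations.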

| SMILES | inhibition at 10 µM ([1]; test compound 10 μmol) [%] | inhibition at 30 µM ([1]; test compound 30 μmol) [%] | inhibition at 100 µM ([1]; test compound 100 μmol) [%] | inhibition at 10 µM ([2]; test compound 10 μmol) [%] | inhibition at 30 µM ([2]; test compound 30 μmol) [%] | inhibition at 100 µM ([2]; test compound 100 μmol) [%] | IICR level (percentage of inhibition) ([1]; test compound 10 μmol) [%] | IICR level (percentage of inhibition) ([1]; test compound 30 μmol) [%] | IICR level (percentage of inhibition) ([1]; test compound 100 μmol) [%] | SOCE level (percentage of inhibition) ([2]; test compound 10 μmol) [%] | SOCE level (percentage of inhibition) ([2]; test compound 30 μmol) [%] | SOCE level (percentage of inhibition) ([2]; test compound 100 μmol) [%] |
| --- | --- | --- | --- | --- | --- | --- | --- | --- | --- | --- | --- | --- |
| CC(C)(C)N(CCC(=O)c1cccs1)Cc1ccccc1 [Example 193, 2-(N-t-butylbenzyl)aminoethyl-2-thiophenylketone] | 70 | 95 | 100 | 0 | 0 | 0 | – | – | – | – | – | – |
| CC(C)N(CCO)CCC(=O)c1cccs1 [Example 194, 2-(N-isopropylhydroxyethyl)aminoethyl-2-thiophenylketone] | 0 | 0 | 0 | 0 | 0 | 10 | – | – | – | – | – | – |
| CC(C)N(CC(=O)c1ccc(F)cc1)Cc1ccccc1 [Example 196, 1-(N-benzylisopropyl)aminomethyl-4-fluorophenylketone] | 0 | 10 | 30 | 0 | 20 | 40 | – | – | – | – | – | – |
| CC(=O)CCN(CCO)C(C)C [Example 197, 2-(N-hydroxyethylisopropyl)aminoethylmethylketone] | 0 | 0 | 0 | 0 | 0 | 0 | – | – | – | – | – | – |
| CC(=O)CCN(Cc1ccccc1)C(C)C [Example 198, 2-(N-benzylisopropyl)aminoethylmethylketone] | 0 | 0 | 0 | 0 | 0 | 0 | – | – | – | – | – | – |
| CC(C)N(CCO)CCC(=O)n1ccnc1 [Example 199, 2-(N-isopropylhydroxyethyl)aminoethyl-1-imidazolylketone] | 10 | 20 | 0 | 0 | 0 | 0 | – | – | – | – | – | – |
| CC(C)N(CCC(=O)N1CCCCCC1=O)Cc1ccccc1 [Example 200, 3-(N-benzylisopropyl)aminopropionylcaprolactam] | 0 | 0 | 20 | 0 | 0 | 10 | – | – | – | – | – | – |
| CC(C)N(CCO)CCC(=O)N1CCCCCC1=O [Example 201, 3-(N-hydroxyethylisopropyl)aminopropionylcaprolactam] | 0 | 0 | 0 | 0 | 0 | 0 | – | – | – | – | – | – |
| CC(C)N(CCC(=O)c1cc(Cl)sc1Cl)Cc1ccccc1 [Example 202, 2-(N-isopropylbenzyl)aminomethyl-3-(2,5-dichlorothiophenyl)ketone] | 50 | 80 | 100 | 0 | 20 | 50 | – | – | – | – | – | – |
| CC(C)N(CCO)CCC(=O)c1cc(Cl)sc1Cl [Example 203, 2-(N-isopropyl-2-hydroxyethyl)aminomethyl-3-(2,5-dichlorothiophenyl)ketone] | 40 | 90 | 100 | 50 | 20 | 10 | – | – | – | – | – | – |
| O=C(CCN(CCO)Cc1ccccc1)c1cc(Cl)sc1Cl [Example 204, 2-(N-2-hydroxyethylbenzyl)aminomethyl-3-(2,5-dichlorothiophenyl)ketone] | 0 | 40 | 70 | 0 | 0 | 50 | – | – | – | – | – | – |
| CC(C)N(CCO)CCC(=O)c1ccc2ccccc2c1 [Example 205, 2-(N-hydroxyethylisopropyl)aminoethyl-2-naphthylketone] | 0 | 0 | 0 | 0 | 0 | 0 | – | – | – | – | – | – |
| CC(C)N(CCO)CC(=O)c1ccccc1 [Example 206, 2-(N-hydroxyethylisopropyl)aminomethylphenylketone] | 0 | 0 | 40 | 0 | 0 | 0 | – | – | – | – | – | – |
| CC(C)N(CCO)CCCC(=O)c1ccccc1 [Example 207, 3-(N-hydroxyethylisopropyl)aminopropylphenylketone] | – | – | – | – | – | – | 20 | 20 | 20 | 0 | 0 | 30 |
| CN(CCO)CCC(=O)c1cnccn1 [Example 208, 2-(N-hydroxyethylmethyl)aminoethyl-2-pyrazylketone] | 20 | 30 | 30 | 0 | 10 | 20 | – | – | – | – | – | – |
| CCN(CCC(=O)c1ccncc1)Cc1ccccc1 [Example 209, 2-(N-ethylbenzyl)aminoethyl-4-pyridylketone] | 20 | 20 | 50 | 0 | 20 | 60 | – | – | – | – | – | – |
| CC(C)(C)N(CCC(=O)c1ccncc1)Cc1ccccc1 [Example 210, 2-(N-t-butylbenzyl)aminoethyl-4-pyridylketone] | 0 | 20 | 0 | 0 | 10 | 30 | – | – | – | – | – | – |
| O=C(CCN1CCN(c2ccco2)CC1)c1ccc(F)cc1 [Example 211, 2-(N-2-furylpiperadino)ethyl-4-fluorophenylketone] | 30 | 20 | 20 | 0 | 10 | 30 | – | – | – | – | – | – |
| CC(C)N(CCC(=O)c1ccc(F)cc1)Cc1ccccc1 [Example 212, 2-(N-isopropylbenzyl)aminoethyl-4-fluorophenylketone] | 20 | 80 | 30 | 0 | 30 | 50 | – | – | – | – | – | – |
| CC(C)(C)N(CCC(=O)c1cnccn1)Cc1ccccc1 [Example 213, 2-(N-2-benzyl-t-butyl)aminoethyl-2-pyrazylketone] | 20 | 80 | 90 | 0 | 0 | 10 | – | – | – | – | – | – |
| CC(C)(C)N(CCO)CCC(=O)c1cnccn1 [Example 214, 2-(N-2-hydroxyethyl-t-butyl)aminoethyl-2-pyrazylketone] | 0 | 0 | 0 | 10 | 0 | 0 | – | – | – | – | – | – |
| CN(CCC(=O)c1cnccn1)Cc1ccccc1 [Example 215, 2-(N-benzylmethyl)aminoethyl-2-pyrazylketone] | 0 | 0 | 50 | 0 | 0 | 0 | – | – | – | – | – | – |
| O=C(CCNCCCCNCCCNCCC(=O)c1ccncc1)c1ccncc1 [Example 216, N,N-bis(4-pyrizoylethyl)spermidine] | 0 | 0 | 30 | 0 | 10 | 10 | – | – | – | – | – | – |
| O=C(CCN1CCCCC1CO)c1ccncc1 (stereo not drawn) [Example 217] | 0 | 20 | 50 | 10 | 0 | 20 | – | – | – | – | – | – |
| CCN(CCC(=O)c1ccc2c(c1)Cc1ccccc1-2)Cc1ccccc1 [Example 218, 2-(N-benzylethyl)aminoethyl-2-florenylketone] | 10 | 40 | 70 | 20 | 60 | 70 | – | – | – | – | – | – |
| Cc1nc(C)c(C(=O)CCN(Cc2ccccc2)C(C)C)s1 [Example 219, 2-(N-benzylisopropyl)aminoethyl-5-(2,4-dimethylthiazolyl)ketone] | 20 | 90 | 100 | 0 | 0 | 0 | – | – | – | – | – | – |
| Cc1nc(C)c(C(=O)CCNCCNCCO)s1 [Example 220, 2-(N-2-hydroxyaminoethyl)aminoethyl-5-(2,4-dimethylthiazolyl)ketone] | 0 | 40 | 40 | 0 | 0 | 0 | – | – | – | – | – | – |
